Laboratory results published in PMC3968014, “Design and Synthesis of a Library of Lead-Like 2,4-Bisheterocyclic Substituted Thiophenes as Selective Dyrk/Clk Inhibitors” (PLoS ONE, 2014).
Values joined by “and” are separate entries in the source; they are usually repeats but may differ in a detail not shown here. Equal entries are not always repeated. Each block holds one molecule with its values, some of them ahead of it.

Legend:
CDK5 = molecular target: T1, CDK5 (Homo sapiens, UniProt Q00535); experiment: Selectivity panel CDK5; assay type: biochemical; conditions: 5 µM inhibitor
T1 construct: purchased Life Technologies (Invitrogen SelectScreen); Dyrk1A, Dyrk2 and CK2α in-house or gifts
T1 sequence (Q00535 whole entry): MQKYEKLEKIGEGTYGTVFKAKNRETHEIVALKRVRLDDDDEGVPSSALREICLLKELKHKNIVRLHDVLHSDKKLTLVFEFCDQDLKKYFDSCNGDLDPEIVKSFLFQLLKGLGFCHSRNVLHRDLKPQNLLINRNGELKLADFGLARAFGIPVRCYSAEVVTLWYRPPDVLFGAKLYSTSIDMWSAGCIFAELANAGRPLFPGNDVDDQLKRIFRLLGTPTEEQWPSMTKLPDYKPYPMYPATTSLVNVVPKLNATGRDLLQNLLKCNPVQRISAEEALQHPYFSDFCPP
T1 sequence (Q15078 whole entry partner): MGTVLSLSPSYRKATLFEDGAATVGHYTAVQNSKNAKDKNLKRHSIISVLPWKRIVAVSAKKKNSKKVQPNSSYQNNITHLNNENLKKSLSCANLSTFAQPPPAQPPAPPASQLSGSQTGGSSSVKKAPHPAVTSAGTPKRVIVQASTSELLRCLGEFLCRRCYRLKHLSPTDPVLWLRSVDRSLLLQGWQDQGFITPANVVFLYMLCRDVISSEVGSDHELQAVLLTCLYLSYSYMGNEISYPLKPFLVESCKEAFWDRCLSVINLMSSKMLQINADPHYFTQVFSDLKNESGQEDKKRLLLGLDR

HIPK1 = molecular target: T2, HIPK1 (Homo sapiens, UniProt Q86Z02); experiment: Selectivity panel HIPK1; assay type: biochemical; conditions: 5 µM inhibitor
T2 construct: purchased Life Technologies (Invitrogen SelectScreen); Dyrk1A, Dyrk2 and CK2α in-house or gifts
T2 sequence (Q86Z02 whole entry): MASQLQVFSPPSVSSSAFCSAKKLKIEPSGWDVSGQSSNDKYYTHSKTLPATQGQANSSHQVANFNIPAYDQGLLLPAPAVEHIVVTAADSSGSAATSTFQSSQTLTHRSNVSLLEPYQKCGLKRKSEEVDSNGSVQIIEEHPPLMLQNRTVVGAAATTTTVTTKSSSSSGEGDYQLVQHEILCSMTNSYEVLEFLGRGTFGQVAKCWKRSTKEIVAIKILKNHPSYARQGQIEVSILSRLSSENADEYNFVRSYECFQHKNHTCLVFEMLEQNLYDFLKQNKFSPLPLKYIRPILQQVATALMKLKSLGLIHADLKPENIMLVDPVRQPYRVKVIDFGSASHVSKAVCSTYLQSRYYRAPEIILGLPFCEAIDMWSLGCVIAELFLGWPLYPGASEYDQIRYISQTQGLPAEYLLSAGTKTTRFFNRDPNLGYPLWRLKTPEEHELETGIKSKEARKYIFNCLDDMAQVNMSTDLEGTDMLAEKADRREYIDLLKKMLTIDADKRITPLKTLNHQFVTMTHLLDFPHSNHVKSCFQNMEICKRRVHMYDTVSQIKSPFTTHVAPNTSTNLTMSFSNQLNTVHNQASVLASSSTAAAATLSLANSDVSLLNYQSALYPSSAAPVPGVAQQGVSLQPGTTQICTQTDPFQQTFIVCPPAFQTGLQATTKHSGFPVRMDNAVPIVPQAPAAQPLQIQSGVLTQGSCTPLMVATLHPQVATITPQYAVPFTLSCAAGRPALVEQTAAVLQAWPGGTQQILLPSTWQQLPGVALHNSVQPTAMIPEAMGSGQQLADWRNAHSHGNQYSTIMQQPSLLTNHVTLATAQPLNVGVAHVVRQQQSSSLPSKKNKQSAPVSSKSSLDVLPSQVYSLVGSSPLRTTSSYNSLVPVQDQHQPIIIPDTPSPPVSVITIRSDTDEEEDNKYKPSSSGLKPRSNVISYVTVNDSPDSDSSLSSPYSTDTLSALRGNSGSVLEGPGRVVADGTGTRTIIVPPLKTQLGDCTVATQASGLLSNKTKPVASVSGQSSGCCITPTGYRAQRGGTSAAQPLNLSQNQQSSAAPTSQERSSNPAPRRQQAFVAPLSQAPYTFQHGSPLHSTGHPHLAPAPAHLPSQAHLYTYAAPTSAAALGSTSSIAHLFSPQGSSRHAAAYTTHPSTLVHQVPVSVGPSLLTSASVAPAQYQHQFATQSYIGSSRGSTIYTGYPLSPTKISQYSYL

Dyrk2 = molecular target: T3, Dyrk2 (Homo sapiens, UniProt Q92630); experiment: Dyrk2 kinase assay (32P-ATP, Woodtide); assay type: biochemical; conditions: for IC50: 100 µM ATP, read-out: IC50 Dyrk2; for inhibition at 5 µM: read-out: percentage of inhibition Dyrk2
T3 construct: made in house; host or cells: Escherichia coli BL21(DE3) with pRARE; plasmid pGEX-2TK-Dyrk2 (gift from W. Becker, Aachen)
T3 sequence (Q92630 1-601): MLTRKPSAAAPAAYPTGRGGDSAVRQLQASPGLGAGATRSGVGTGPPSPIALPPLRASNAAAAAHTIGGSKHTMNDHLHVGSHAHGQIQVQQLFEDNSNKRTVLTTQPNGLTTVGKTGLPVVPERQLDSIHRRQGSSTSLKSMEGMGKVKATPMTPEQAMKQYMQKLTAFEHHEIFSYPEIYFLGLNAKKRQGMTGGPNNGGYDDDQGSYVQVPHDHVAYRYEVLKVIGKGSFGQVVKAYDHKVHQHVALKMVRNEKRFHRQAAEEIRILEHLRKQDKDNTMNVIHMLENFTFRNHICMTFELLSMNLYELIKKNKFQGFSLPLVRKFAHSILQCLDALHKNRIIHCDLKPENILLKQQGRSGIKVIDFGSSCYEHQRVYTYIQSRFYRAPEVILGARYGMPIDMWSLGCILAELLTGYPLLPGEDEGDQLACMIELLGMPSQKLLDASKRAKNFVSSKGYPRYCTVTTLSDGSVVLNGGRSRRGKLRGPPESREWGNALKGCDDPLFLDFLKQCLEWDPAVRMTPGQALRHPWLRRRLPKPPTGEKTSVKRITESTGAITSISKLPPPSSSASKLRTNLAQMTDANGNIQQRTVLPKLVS

ROS = molecular target: T4, ROS (Homo sapiens, UniProt P08922); experiment: Selectivity panel ROS; assay type: biochemical; conditions: 5 µM inhibitor
T4 construct: purchased Life Technologies (Invitrogen SelectScreen); Dyrk1A, Dyrk2 and CK2α in-house or gifts
T4 sequence (P08922 28-2347): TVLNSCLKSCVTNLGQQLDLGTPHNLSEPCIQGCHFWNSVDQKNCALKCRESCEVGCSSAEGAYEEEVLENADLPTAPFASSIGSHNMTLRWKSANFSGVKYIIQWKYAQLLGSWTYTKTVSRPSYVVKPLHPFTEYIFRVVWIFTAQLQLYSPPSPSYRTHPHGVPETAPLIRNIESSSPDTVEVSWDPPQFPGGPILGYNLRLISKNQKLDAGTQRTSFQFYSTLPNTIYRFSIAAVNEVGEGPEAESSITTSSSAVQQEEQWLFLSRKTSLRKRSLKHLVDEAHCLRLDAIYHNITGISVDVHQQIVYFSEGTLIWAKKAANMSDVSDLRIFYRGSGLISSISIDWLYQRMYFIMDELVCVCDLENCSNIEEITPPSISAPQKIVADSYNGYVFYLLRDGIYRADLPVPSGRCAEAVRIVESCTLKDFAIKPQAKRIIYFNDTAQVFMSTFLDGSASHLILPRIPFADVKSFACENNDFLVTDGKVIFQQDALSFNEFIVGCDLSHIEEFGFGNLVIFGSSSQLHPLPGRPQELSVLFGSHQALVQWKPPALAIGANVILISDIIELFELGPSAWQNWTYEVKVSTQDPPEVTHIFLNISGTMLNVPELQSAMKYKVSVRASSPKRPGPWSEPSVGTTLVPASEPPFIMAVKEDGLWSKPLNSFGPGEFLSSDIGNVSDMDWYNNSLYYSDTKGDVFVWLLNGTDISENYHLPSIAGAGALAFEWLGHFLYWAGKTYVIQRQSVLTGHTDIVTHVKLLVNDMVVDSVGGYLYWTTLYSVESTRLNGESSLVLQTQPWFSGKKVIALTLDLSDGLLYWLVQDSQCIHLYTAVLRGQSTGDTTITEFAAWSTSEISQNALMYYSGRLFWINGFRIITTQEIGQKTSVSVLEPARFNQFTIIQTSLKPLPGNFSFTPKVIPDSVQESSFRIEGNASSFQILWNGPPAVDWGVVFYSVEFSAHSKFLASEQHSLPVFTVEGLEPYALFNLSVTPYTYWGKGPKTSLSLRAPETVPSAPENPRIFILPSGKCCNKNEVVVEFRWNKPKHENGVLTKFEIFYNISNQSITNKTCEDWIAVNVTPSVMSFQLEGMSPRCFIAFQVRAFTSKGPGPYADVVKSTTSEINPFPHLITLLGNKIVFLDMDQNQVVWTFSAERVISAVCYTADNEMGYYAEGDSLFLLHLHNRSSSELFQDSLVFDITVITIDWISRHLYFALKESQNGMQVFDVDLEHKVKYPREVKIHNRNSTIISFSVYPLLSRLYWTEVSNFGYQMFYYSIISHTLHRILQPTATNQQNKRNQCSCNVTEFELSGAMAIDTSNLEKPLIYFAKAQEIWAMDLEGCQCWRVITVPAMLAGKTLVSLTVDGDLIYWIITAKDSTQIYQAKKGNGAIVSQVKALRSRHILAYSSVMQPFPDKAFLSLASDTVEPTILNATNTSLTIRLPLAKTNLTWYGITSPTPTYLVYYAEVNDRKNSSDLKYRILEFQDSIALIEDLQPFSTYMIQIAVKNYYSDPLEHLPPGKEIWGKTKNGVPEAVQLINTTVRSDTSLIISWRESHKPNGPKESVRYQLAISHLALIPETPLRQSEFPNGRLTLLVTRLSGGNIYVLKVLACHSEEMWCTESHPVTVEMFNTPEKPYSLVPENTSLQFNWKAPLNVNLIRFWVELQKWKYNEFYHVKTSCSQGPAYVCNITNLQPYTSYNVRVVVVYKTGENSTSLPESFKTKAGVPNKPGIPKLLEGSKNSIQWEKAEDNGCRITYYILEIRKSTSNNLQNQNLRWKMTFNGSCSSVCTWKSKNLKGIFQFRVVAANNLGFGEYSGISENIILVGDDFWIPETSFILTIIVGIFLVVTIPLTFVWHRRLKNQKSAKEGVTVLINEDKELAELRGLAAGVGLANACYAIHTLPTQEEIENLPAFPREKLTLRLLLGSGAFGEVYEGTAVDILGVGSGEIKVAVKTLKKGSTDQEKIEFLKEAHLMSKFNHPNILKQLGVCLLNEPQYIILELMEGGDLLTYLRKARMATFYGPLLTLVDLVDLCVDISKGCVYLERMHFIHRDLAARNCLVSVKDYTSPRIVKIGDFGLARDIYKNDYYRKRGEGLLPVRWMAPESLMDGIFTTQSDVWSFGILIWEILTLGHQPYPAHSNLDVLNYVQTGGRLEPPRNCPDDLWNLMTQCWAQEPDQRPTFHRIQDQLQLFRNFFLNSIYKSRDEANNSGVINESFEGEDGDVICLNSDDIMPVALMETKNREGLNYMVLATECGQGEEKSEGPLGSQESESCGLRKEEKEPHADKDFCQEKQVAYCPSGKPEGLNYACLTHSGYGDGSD

PKCβ = molecular target: T5, PKCβ (Homo sapiens, UniProt P05771); experiment: Selectivity panel PKCβ; assay type: biochemical; conditions: 5 µM inhibitor
T5 construct: purchased Life Technologies (Invitrogen SelectScreen); Dyrk1A, Dyrk2 and CK2α in-house or gifts
T5 sequence (P05771 whole entry): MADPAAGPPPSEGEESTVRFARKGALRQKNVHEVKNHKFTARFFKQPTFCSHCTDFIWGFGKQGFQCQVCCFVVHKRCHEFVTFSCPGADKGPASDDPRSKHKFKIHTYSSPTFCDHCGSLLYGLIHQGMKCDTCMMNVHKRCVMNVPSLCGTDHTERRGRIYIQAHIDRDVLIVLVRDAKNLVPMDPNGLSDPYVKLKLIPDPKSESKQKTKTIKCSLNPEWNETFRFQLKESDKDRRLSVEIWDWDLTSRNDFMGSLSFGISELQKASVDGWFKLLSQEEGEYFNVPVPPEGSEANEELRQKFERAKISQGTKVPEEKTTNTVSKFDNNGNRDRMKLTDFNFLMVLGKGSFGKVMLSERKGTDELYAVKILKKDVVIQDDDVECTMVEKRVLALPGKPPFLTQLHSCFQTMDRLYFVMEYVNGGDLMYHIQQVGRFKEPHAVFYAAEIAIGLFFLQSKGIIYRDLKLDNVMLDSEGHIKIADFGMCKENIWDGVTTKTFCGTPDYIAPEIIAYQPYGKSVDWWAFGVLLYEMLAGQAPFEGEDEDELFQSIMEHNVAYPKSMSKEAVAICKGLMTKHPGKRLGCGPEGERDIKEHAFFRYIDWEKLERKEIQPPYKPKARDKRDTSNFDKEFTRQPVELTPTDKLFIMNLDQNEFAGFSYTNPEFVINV

MARK1 (MARK) = molecular target: T6, MARK1 (MARK) (Homo sapiens, UniProt Q9P0L2); experiment: Selectivity panel MARK1; assay type: biochemical; conditions: 5 µM inhibitor
T6 construct: purchased Life Technologies (Invitrogen SelectScreen); Dyrk1A, Dyrk2 and CK2α in-house or gifts

TEK (Tie2) = molecular target: T7, TEK (Tie2) (Homo sapiens, UniProt Q02763); experiment: Selectivity panel TEK; assay type: biochemical; conditions: 5 µM inhibitor
T7 construct: purchased Life Technologies (Invitrogen SelectScreen); Dyrk1A, Dyrk2 and CK2α in-house or gifts

TNK2 (ACK) = molecular target: T8, TNK2 (ACK) (Homo sapiens, UniProt Q07912); experiment: Selectivity panel TNK2; assay type: biochemical; conditions: 5 µM inhibitor
T8 construct: purchased Life Technologies (Invitrogen SelectScreen); Dyrk1A, Dyrk2 and CK2α in-house or gifts

EPHB3 = molecular target: T9, EPHB3 (Homo sapiens, UniProt P54753); experiment: Selectivity panel EPHB3; assay type: biochemical; conditions: 5 µM inhibitor
T9 construct: purchased Life Technologies (Invitrogen SelectScreen); Dyrk1A, Dyrk2 and CK2α in-house or gifts

RET = molecular target: T10, RET (Homo sapiens, UniProt P07949); experiment: Selectivity panel RET; assay type: biochemical; conditions: 5 µM inhibitor
T10 construct: purchased Life Technologies (Invitrogen SelectScreen); Dyrk1A, Dyrk2 and CK2α in-house or gifts

DYRK4 = molecular target: T11, DYRK4 (Homo sapiens, UniProt Q9NR20); experiment: Selectivity panel DYRK4; assay type: biochemical; conditions: 5 µM inhibitor
T11 construct: purchased Life Technologies (Invitrogen SelectScreen); Dyrk1A, Dyrk2 and CK2α in-house or gifts

CDK2/cyclin A = molecular target: T12, CDK2/cyclin A (Homo sapiens, UniProt P24941); experiment: Selectivity panel CDK2/cyclin A; assay type: biochemical; conditions: 5 µM inhibitor
T12 construct: purchased Life Technologies (Invitrogen SelectScreen); Dyrk1A, Dyrk2 and CK2α in-house or gifts

ZAP70 = molecular target: T13, ZAP70 (Homo sapiens, UniProt P43403); experiment: Selectivity panel ZAP70; assay type: biochemical; conditions: 5 µM inhibitor
T13 construct: purchased Life Technologies (Invitrogen SelectScreen); Dyrk1A, Dyrk2 and CK2α in-house or gifts

MAPKAPK2 = molecular target: T14, MAPKAPK2 (Homo sapiens, UniProt P49137); experiment: Selectivity panel MAPKAPK2; assay type: biochemical; conditions: 5 µM inhibitor
T14 construct: purchased Life Technologies (Invitrogen SelectScreen); Dyrk1A, Dyrk2 and CK2α in-house or gifts

AMPK A1/B1/G1 = molecular target: T15, AMPK A1/B1/G1 (Homo sapiens, UniProt Q13131); experiment: Selectivity panel AMPK; assay type: biochemical; conditions: 5 µM inhibitor
T15 construct: purchased Life Technologies (Invitrogen SelectScreen); Dyrk1A, Dyrk2 and CK2α in-house or gifts

U2OS osteosarcoma cells = experiment: Caspase-3 Assay (Caspase-Glo 3/7); assay type: cell-based
Procedure: U2OS osteosarcoma cells were seeded in a 96 well flat bottom plate (15*10^3 cells/well). […] The induction of caspase-3/7 activity was measured using the Promega Caspase-Glo 3/7 assay system (Promega, LOT 0000054568). The resulting luciferase reaction signals that are proportional to the caspase induction were measured in a POLARstar plate reader (BMG Labtech, Offenburg, Germany). […] Values obtained for different compound concentrations were compared using the two-sided Student's t test; levels of significance thus obtained are indicated by asterisks.

CLK2 = molecular target: T16, CLK2 (Homo sapiens, UniProt P49760); experiment: Selectivity panel CLK2; assay type: biochemical; conditions: 5 µM inhibitor
T16 construct: purchased Life Technologies (Invitrogen SelectScreen); Dyrk1A, Dyrk2 and CK2α in-house or gifts

MAPK10 (JNK3) = molecular target: T17, MAPK10 (JNK3) (Homo sapiens, UniProt P53779); experiment: Selectivity panel MAPK10; assay type: biochemical; conditions: 5 µM inhibitor
T17 construct: purchased Life Technologies (Invitrogen SelectScreen); Dyrk1A, Dyrk2 and CK2α in-house or gifts

SGK (SGK1) = molecular target: T18, SGK (SGK1) (Homo sapiens, UniProt O00141); experiment: Selectivity panel SGK; assay type: biochemical; conditions: 5 µM inhibitor
T18 construct: purchased Life Technologies (Invitrogen SelectScreen); Dyrk1A, Dyrk2 and CK2α in-house or gifts

AXL = molecular target: T19, AXL (Homo sapiens, UniProt P30530); experiment: Selectivity panel AXL; assay type: biochemical; conditions: 5 µM inhibitor
T19 construct: purchased Life Technologies (Invitrogen SelectScreen); Dyrk1A, Dyrk2 and CK2α in-house or gifts

PRKACA (PKA) = molecular target: T20, PRKACA (PKA) (Homo sapiens, UniProt P17612); experiment: Selectivity panel PRKACA; assay type: biochemical; conditions: 5 µM inhibitor
T20 construct: purchased Life Technologies (Invitrogen SelectScreen); Dyrk1A, Dyrk2 and CK2α in-house or gifts

MKNK1 (MNK1) = molecular target: T21, MKNK1 (MNK1) (Homo sapiens, UniProt Q9BUB5); experiment: Selectivity panel MKNK1; assay type: biochemical; conditions: 5 µM inhibitor
T21 construct: purchased Life Technologies (Invitrogen SelectScreen); Dyrk1A, Dyrk2 and CK2α in-house or gifts

RPS6KA5 (MSK1) = molecular target: T22, RPS6KA5 (MSK1) (Homo sapiens, UniProt O75582); experiment: Selectivity panel RPS6KA5; assay type: biochemical; conditions: 5 µM inhibitor
T22 construct: purchased Life Technologies (Invitrogen SelectScreen); Dyrk1A, Dyrk2 and CK2α in-house or gifts

[1] = molecular target: T23, (Homo sapiens, UniProt Q9UEW8); experiment: Selectivity panel PASK (STLK3); assay type: biochemical; conditions: 5 µM inhibitor; listed under STE
T23 construct: purchased Life Technologies (Invitrogen SelectScreen); Dyrk1A, Dyrk2 and CK2α in-house or gifts

EEF2K = molecular target: T24, EEF2K (Homo sapiens, UniProt O00418); experiment: Selectivity panel EEF2K; assay type: biochemical; conditions: 5 µM inhibitor
T24 construct: purchased Life Technologies (Invitrogen SelectScreen); Dyrk1A, Dyrk2 and CK2α in-house or gifts

PRKCZ (PKC zeta) = molecular target: T25, PRKCZ (PKC zeta) (Homo sapiens, UniProt Q05513); experiment: Selectivity panel PRKCZ; assay type: biochemical; conditions: 5 µM inhibitor
T25 construct: purchased Life Technologies (Invitrogen SelectScreen); Dyrk1A, Dyrk2 and CK2α in-house or gifts

MYLK2 (skMLCK) = molecular target: T26, MYLK2 (skMLCK) (Homo sapiens, UniProt Q9H1R3); experiment: Selectivity panel MYLK2; assay type: biochemical; conditions: 5 µM inhibitor
T26 construct: purchased Life Technologies (Invitrogen SelectScreen); Dyrk1A, Dyrk2 and CK2α in-house or gifts

ROCK2 = molecular target: T27, ROCK2 (Homo sapiens, UniProt O75116); experiment: Selectivity panel ROCK2; assay type: biochemical; conditions: 5 µM inhibitor
T27 construct: purchased Life Technologies (Invitrogen SelectScreen); Dyrk1A, Dyrk2 and CK2α in-house or gifts

PHKG2 = molecular target: T28, PHKG2 (Homo sapiens, UniProt P15735); experiment: Selectivity panel PHKG2; assay type: biochemical; conditions: 5 µM inhibitor
T28 construct: purchased Life Technologies (Invitrogen SelectScreen); Dyrk1A, Dyrk2 and CK2α in-house or gifts

MAPK8 (JNK1) = molecular target: T29, MAPK8 (JNK1) (Homo sapiens, UniProt P45983); experiment: Selectivity panel MAPK8; assay type: biochemical; conditions: 5 µM inhibitor
T29 construct: purchased Life Technologies (Invitrogen SelectScreen); Dyrk1A, Dyrk2 and CK2α in-house or gifts

inhibition at 5 µM (CDK5): 14%
inhibition at 5 µM (HIPK1): 9%
IC50 (Dyrk2): 3500 nM and 3400 nM
inhibition at 5 µM (Dyrk2): 57%
inhibition at 5 µM (ROS): 0%
inhibition at 5 µM (PKCβ): -7%
melting point: 173 to 174 °C
SMILES: c1cncc(-c2csc(-c3cncnc3)c2)c1 [Compound 41, 5-[4-(pyridin-3-yl)thiophen-2-yl]pyrimidine]

inhibition at 5 µM (CDK5): 33%
inhibition at 5 µM (HIPK1): 8%
IC50 (Dyrk2): 200 nM and 190 nM
inhibition at 5 µM (Dyrk2): 100%
inhibition at 5 µM (ROS): 4%
inhibition at 5 µM (PKCβ): -8%
melting point: 119 to 120 °C
SMILES: Cn1cc(-c2csc(-c3cccnc3)c2)cn1 [Compound 30, 3-[4-(1-methyl-1H-pyrazol-4-yl)thiophen-2-yl]pyridine]

SMILES: c1cncc(-c2cc(-c3cncs3)cs2)c1 [Compound 29, 3-[4-(1,3-thiazol-5-yl)thiophen-2-yl]pyridine]
inhibition at 5 µM (MARK1 (MARK)): 0%
inhibition at 5 µM (TEK (Tie2)): -1%
inhibition at 5 µM (TNK2 (ACK)): 8%
inhibition at 5 µM (CDK5): 39%
inhibition at 5 µM (HIPK1): 4%
inhibition at 5 µM (EPHB3): 0%
inhibition at 5 µM (RET): -1%
inhibition at 5 µM (DYRK4): 13%
inhibition at 5 µM (CDK2/cyclin A): 22%
inhibition at 5 µM (ZAP70): 4%
inhibition at 5 µM (MAPKAPK2): 2%
IC50 (Dyrk2): 400 nM and 430 nM
inhibition at 5 µM (Dyrk2): 93%
inhibition at 5 µM (AMPK A1/B1/G1): -9%
concentration at which induction of caspase-3/7 was already observed (U2OS osteosarcoma cells; U2OS cells, not statistically significant at this concentration): 0.5 µM
caspase-3/7 activity (U2OS osteosarcoma cells; starved U2OS cells, 48 hours, vs DMSO control): clear increase
inhibition at 5 µM (CLK2): 72%
inhibition at 5 µM (ROS): 0%
inhibition at 5 µM (MAPK10 (JNK3)): 4%
inhibition at 5 µM (SGK (SGK1)): 20%
inhibition at 5 µM (AXL): -2%
inhibition at 5 µM (PRKACA (PKA)): 1%
inhibition at 5 µM (MKNK1 (MNK1)): 83%
inhibition at 5 µM (RPS6KA5 (MSK1)): 15%
inhibition at 5 µM (PKCβ): -7%
melting point: 114 to 115 °C
inhibition at 5 µM [1]: 23%
inhibition at 5 µM (EEF2K): 0%
inhibition at 5 µM (PRKCZ (PKC zeta)): -23%
inhibition at 5 µM (MYLK2 (skMLCK)): 12%
inhibition at 5 µM (ROCK2): 6%
inhibition at 5 µM (PHKG2): -12%
inhibition at 5 µM (MAPK8 (JNK1)): -1%
